Counter-ions that a name gives are not always drawn. Like-named read-outs stand apart in the source and are kept apart here.
Assays:
kidney fibrosis = conditions: in vivo; cited from earlier work
Brain Tumor mGli1 = experiment: PK/PD GIi1 expression in Ptch−/+ × p53−/− transgenic tumor model (qRT-PCR TaqMan); type: in vivo, mouse; conditions: PTCH Tg, single oral dose
Excerpt: (§1) Following the predetermined dosing period, surrogate tissues (lung, skin, and cerebellum) from Balb/C mouse and tumor from Ptch^−/+×p53^−/− transgenic tumor model were harvested, processed, and evaluated for GIi1 expression levels using a quantitative reverse transcription polymerase chain reaction TaqMan® assay. […] Given the parallel PD effects, skin GIi1 is an appropriate PD surrogate for lung tissue GIi1.

[1] = tested on: Hh signaling activity in human Daoy cells; experiment: GIi1 transcript levels in Daoy tumor cell line stimulated with SHh-CM (branched chain DNA assay); type: cell-based; conditions: GIi1 mRNA, n=8, geometric mean±SE
[2] = tested on: Hh signaling activity in mouse C3H10T½ cells; experiment: Gli-Luciferase activity in C3H10T½ cells stimulated with SHh-CM; type: cell-based; conditions: n=8, geometric mean±SE
mGli1 = experiment: PK/PD GIi1 expression in Balb/c surrogate tissues after single oral dose (qRT-PCR TaqMan); type: in vivo, Balb/c mouse
Excerpt: as §1

IPF patients = conditions: cited from earlier work; for effect on FVC in clinical trials (FIG. 1): IPF patients, 24 weeks (GLPG1690 12 weeks), vismodegib in combination with pirfenidone
[3] = cited from earlier work; for predominant AE causing discontinuation: comparator drugs
oral bioavailability = conditions: in vivo
Excerpt: This molecule has been in over 192 human subjects and developed initially with the intention of treating oncologic indications with a focus on lung cancer and basal cell carcinoma (BCC). Although primarily cancer patients, these studies allowed for a preliminary understanding of dose and tolerability.

GIi1 mRNA [4] = experiment: GIi1 mRNA inhibition in skin biopsies of clinical subjects; type: in vivo, human
Experimental: (§2) Taldegib was administered to subjects at doses of 50, 100, 200, 400 and 600 mg.

[5] = tested on: α-SMA protein expression (myofibroblasts); experiment: bleomycin-induced pulmonary fibrosis model, anti-α-SMA immunohistochemistry; conditions: 5 mg/kg orally daily from day seven, pathology on day 21
Excerpt: FIG. 4B depicts the percent α-SMA positive area from the individual mice and the mean and standard deviation for the treatment groups.
A Microsprayer® Aerosolizer was used to perform intratracheal administration of bleomycin. By administering bleomycin via Microsprayer® Aerosolizer, it can be evenly exposed to the lungs and thus, develops a reproducible and uniform pathology.
Pathology of animals was examined on day 21 of the study.

[6] = clinical safety and tolerability (MTD, adverse events, discontinuations)
Experimental: as §2

GIi1 activity = conditions: Daoy cells, assay of U.S. Pat. No. 9,000,023; cited from earlier work
[7] = Biopharmaceutics Classification System (BCS) class; type: physicochemical
IPF = experiment: Phase 2 multi-center study of safety and efficacy in subjects with IPF; type: in vivo, human
Excerpt: Quantitative (% and mL) and qualitative (improved, same, worse) assessment of lung fibrosis by HRCT will be performed at Screening and Week 12. The Screening HRCT will serve as the baseline for study HRCT assessments.

Hh = conditions: Zhu et al. 2019; read-out: ID50 for Hh inhibition; cited from earlier work
[8] = clinical pharmacokinetics; conditions: human, in vivo
GIi1 mRNA [9] = conditions: vismodegib at its MTD of 150 mg; cited from earlier work
[10] = Balb/c, cerebellum, single oral dose
[11] = after sufficient step-down of dosage, if any

## CC1=C2C[C@H]3[C@@H](CC[C@@H]4C[C@H](NS(C)(=O)=O)CC[C@@]43C)[C@@H]2CC[C@@]2(C1)O[C@@H]1C[C@H](C)CN[C@H]1[C@H]2C [IPI-926]
Kidney fibrosis
  efficacy in treating kidney fibrosis: ineffective

## CN(C(=O)c1ccc(F)cc1C(F)(F)F)C1CCN(c2nnc(-c3ccnn3C)c3ccccc23)CC1 [Taladegib hydrochloride]
Brain Tumor mGli1
  Brain Tumor mGli1 TEC50: 63.0 ng/mL
  Brain Tumor mGli1 TED50: 1.0 mg/kg
[1]
  IC50: 2.22 ± 1.14 nM
[2]
  IC50: 11.2 ± 5.33 nM
mGli1; [10]
  Cerebellum mGli1 TEC50: 230 ng/mL
  Cerebellum mGli1 TED50: 2.2 mg/kg
mGli1; Balb/c, lung, single oral dose
  Lung mGli1 TEC50: 264 ± 114 ng/mL
  Lung mGli1 TED50: 2.6 ± 0.6 mg/kg
mGli1; Balb/c, skin, single oral dose
  Skin mGli1 TEC50: 84 ng/mL
  Skin mGli1 TED50: 1.1 mg/kg
mGli1; time course, single oral dose 8 mg/kg
  duration of sustained target inhibition: at least 24 hours

## CC1=C2C[C@H]3[C@@H](CC=C4C[C@@H](O)CC[C@@]43C)[C@@H]2CC[C@]12O[C@@H]1C[C@H](C)CN[C@H]1[C@H]2C [cyclopamine]
Kidney fibrosis
  efficacy in treating kidney fibrosis: ineffective

## COC(=O)c1ccc2c(c1)NC(=O)/C2=C(\Nc1ccc(N(C)C(=O)CN2CCN(C)CC2)cc1)c1ccccc1 [nintedanib]
IPF patients
  effect on FVC in clinical trials (FIG. 1): only able to slow the deterioration of FVC
[3]
  predominant AE causing discontinuation: diarrhea

## Cc1ccc(=O)n(-c2ccccc2)c1 [pirfenidone]
IPF patients
  effect on FVC in clinical trials (FIG. 1): only able to slow the deterioration of FVC
[3]
  predominant AE causing discontinuation: nausea

## CN(C(=O)c1ccc(F)cc1C(F)(F)F)C1CCN(c2nnc(-c3ccnn3C)c3ccccc23)CC1 [taladegib]
Oral bioavailability
  bioavailability: 72 to 91%
GIi1 mRNA [4]; all dose levels tested, 50-600 mg
  pharmacological activity (BED: inhibition >50%): pharmacologically active at all dose levels tested
GIi1 mRNA [4]; dose 50 mg
  inhibition of GIi1 mRNA: greater than 80%
GIi1 mRNA [4]; dose 400 mg (MTD)
  GIi1 mRNA inhibition in skin: > 85%
GIi1 mRNA [4]; doses of 50, 100, 200, 400 and 600 mg, most patients
  inhibition of Gli in skin biopsies: > 80%
[5]
  reduction of α-SMA protein expression: approximately 40%
[6]; human, in vivo
  most commonly observed adverse events (AEs): nausea, diarrhea, dysgeusia, fatigue, decreased appetite, alopecia, vomiting, muscle spasm, constipation, weight decrease, and headache
  occurrence of muscle spasms: 40%
  predominant AE causing discontinuation: no prevalent AE
[6]; taladegib
  clinically established MTD: 400 mg
Lung fibrosis; [11]
  serious drug-related adverse events: did not experience serious drug-related adverse events
Lung fibrosis; at 24 weeks, starting at 200 mg daily
  efficacy endpoints: stabilization or improvement
GIi1 activity
  IC50: ~2.4 nM
[7]
  BCS class: class II (high permeability, low solubility)
IPF; [11]
  serious drug-related adverse events: did not experience serious drug-related adverse events
IPF; at 12 weeks
  efficacy endpoints: stabilization or improvement
IPF; at 12 weeks, starting at 200 mg/day
  dose limiting toxicities: no or limited dose limiting toxicities are observed
IPF; at 18 weeks
  durability of the response: durability of the response is observed
Hh
  IC50: 2.26 nM
[8]; across all doses, estimated, read-out: mean half-life (t½) (converted)
  half-life: ~16 h
[8]; read-out: median tmax
  Tmax: 2 h

## CS(=O)(=O)c1ccc(C(=O)Nc2ccc(Cl)c(-c3ccccn3)c2)c(Cl)c1 [vismodegib]
IPF patients
  effect on FVC in clinical trials (FIG. 1): substantial increase in FVC
IPF patients; single arm IPF study, combination with pirfenidone, after six months, average
  increase in Forced Vital Capacity (FVC): approximately 100 mL
[3]
  predominant AE causing discontinuation: muscle spasms
[3]; single arm IPF study, combination with pirfenidone, severe muscle spasms
  discontinuation of participants: over 40%
[3]; vismodegib 150, 104 patients
  Muscle Spasm Adverse Event Frequency, Grade 1: 43% (45)
  Muscle Spasm Adverse Event Frequency, Grade 2: 22% (23)
  Muscle Spasm Adverse Event Frequency, Grade 3: 6% (7)
  Muscle Spasm Adverse Event Frequency, Grade 4: 0%
[3]; vismodegib
  MTD: 150 mg
GIi1 mRNA [9]
  GIi1 mRNA inhibition: less than 50%

## CCc1nc2c(C)cc(N3CCN(CC(=O)N4CC(O)C4)CC3)cn2c1N(C)c1nc(-c2ccc(F)cc2)c(C#N)s1 [zirtaxestat]
IPF patients
  effect on FVC in clinical trials (FIG. 1): small increase in FVC
